This note sets out measurements from patent US11535611B2, “Pyrazolo[3,4-B]pyridines and imidazo[1,5-B]pyridazines as PDE1 inhibitors” (H. Lundbeck A/S, priority 2017, dated 2022).

Type in all cases: biochemical
The target of one test is PDE1A (Homo sapiens (Human), UniProt P54750). Put plainly: PDE1 inhibition assay, PDE1A. As to conditions: for IC50: 15 nM tritium labelled cAMP, 1 hr at room temperature, SPA beads; for inhibition at 10 µM: @ 10 μM compound. The procedure:
(§1) PDE1A, PDE1B and PDE1C assays were performed as follows: the assays were performed in 60 μL samples containing a fixed amount of the PDE1 enzyme (sufficient to convert 20-25% of the cyclic nucleotide substrate), a buffer (50 mM HEPES (4-(2-hydroxyethyl)-1-piperazineethanesulfonic acid) pH 7.6; 10 mM MgCl2; 0.02% Tween20), 0.1 mg/ml BSA (bovine serum albumin), 15 nM tritium labelled cAMP and varying amounts of inhibitors. Reactions were initiated by addition of the cyclic nucleotide substrate, and reactions were allowed to proceed for 1 hr at room temperature before being terminated through mixing with 20 μL (0.2 mg) yttrium silicate SPA beads (PerkinElmer). The beads were allowed to settle for 1 hour in the dark before the plates were counted in a Wallac 1450 Microbeta counter. The measured signals were converted to activity relative to an uninhibited control (100%) and IC50 values were calculated using XIFit (model 205, IDBS).

The target of another test is PDE1B (Homo sapiens (Human), UniProt Q01064). Put plainly: PDE1 inhibition assay, PDE1B. As to conditions: for IC50: 15 nM tritium labelled cAMP, 1 hr at room temperature, SPA beads, read-out: PDE1 B, IC50. Here is the method:
as §1

Another test has as its target PDE1C (Homo sapiens (Human), UniProt Q14123). Description: PDE1 inhibition assay, PDE1C. As to conditions: for IC50: 15 nM tritium labelled cAMP, 1 hr at room temperature, SPA beads, read-out: PDE1 C, IC50; for inhibition at 10 µM: @ 10 μM compound, read-out: PDE1 C, % inhibition @ 10 μM. The procedure:
as §1

PDE1B, sequence (Q01064 whole entry): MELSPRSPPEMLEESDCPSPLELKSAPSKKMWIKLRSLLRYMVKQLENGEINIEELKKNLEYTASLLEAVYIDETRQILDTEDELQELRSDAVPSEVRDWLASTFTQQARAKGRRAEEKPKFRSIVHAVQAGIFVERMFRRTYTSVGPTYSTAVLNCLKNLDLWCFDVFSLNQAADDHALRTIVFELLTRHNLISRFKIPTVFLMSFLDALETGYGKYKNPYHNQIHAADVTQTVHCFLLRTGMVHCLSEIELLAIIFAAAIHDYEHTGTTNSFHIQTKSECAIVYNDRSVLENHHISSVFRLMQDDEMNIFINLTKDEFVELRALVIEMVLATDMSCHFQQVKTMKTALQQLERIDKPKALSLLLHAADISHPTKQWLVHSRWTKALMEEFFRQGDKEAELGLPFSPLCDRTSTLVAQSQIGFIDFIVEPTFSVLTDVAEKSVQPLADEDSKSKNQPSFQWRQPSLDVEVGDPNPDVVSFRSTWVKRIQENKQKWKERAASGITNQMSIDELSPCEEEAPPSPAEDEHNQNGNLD
PDE1C, sequence (Q14123 whole entry): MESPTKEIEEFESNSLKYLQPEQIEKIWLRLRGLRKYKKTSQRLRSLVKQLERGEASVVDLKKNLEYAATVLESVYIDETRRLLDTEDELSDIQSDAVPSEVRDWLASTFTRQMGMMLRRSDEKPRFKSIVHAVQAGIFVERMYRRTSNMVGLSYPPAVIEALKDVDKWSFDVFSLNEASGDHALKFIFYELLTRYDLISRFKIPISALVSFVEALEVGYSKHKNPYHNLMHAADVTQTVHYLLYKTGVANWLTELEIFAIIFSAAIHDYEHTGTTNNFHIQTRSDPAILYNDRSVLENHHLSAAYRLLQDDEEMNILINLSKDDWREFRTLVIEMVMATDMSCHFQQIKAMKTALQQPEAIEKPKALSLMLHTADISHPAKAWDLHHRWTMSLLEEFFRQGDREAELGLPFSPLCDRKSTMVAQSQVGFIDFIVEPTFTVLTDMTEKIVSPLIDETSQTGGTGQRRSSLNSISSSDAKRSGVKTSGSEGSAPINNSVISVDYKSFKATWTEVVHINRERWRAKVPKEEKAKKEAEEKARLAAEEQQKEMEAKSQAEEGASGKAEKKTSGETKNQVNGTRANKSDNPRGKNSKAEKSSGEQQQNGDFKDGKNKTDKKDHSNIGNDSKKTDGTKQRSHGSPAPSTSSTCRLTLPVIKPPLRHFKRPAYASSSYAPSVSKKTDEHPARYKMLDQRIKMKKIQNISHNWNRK
PDE1A, sequence (P54750 whole entry): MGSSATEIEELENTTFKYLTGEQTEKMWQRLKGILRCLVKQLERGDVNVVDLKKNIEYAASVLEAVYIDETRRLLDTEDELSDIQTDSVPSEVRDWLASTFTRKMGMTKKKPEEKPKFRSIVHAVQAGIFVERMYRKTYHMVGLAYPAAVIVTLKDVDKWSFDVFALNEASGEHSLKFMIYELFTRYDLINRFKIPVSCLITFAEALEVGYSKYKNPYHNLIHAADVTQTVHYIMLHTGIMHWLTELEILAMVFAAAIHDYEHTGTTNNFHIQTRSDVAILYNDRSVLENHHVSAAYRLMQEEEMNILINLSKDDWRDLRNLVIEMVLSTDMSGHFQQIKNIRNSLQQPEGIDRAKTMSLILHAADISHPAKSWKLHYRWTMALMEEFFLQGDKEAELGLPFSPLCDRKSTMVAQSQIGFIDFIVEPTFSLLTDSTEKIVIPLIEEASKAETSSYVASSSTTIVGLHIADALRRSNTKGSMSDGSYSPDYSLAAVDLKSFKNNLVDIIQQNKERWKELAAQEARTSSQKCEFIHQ

Usually IC50 stands for the midpoint of a concentration-inhibition curve. Take `COc1ncccc1-c1nc2c(C)nn(C(C)C)c2cc1C` [Example 61, 1-isopropyl-5-(2-methoxy-3-pyridyl)-3,6-dimethyl-pyrazolo[4,3-b]pyridine]: the results for the IC50 against PDE1A, at PDE1B and on PDE1C were 288 nM, 84 nM and 236 nM, respectively.

`CC(C)n1ncc2nc(-c3cccnc3OC(C)(C)C)cc(N[C@@H]3CCOC3)c21` [Example 36, 5-(2-tert-butoxy-3-pyridyl)-1-isopropyl-N-[(3R)-tetrahydrofuran-3-yl]pyrazolo[4,3-b]pyridin-7-amine]: the values for the IC50 against PDE1A, on PDE1B and at PDE1C were 260 nM, 91 nM and 3230 nM, respectively.

`CCOc1ncccc1-c1cc(N[C@@H]2COC[C@H]2OC)c2c(cnn2C(C)C)n1` (relative stereo) [Example 11, 5-(2-ethoxy-3-pyridyl)-1-isopropyl-N-[trans-4-methoxytetrahydrofuran-3-yl]pyrazolo[4,3-b]pyridin-7-amine]: the IC50 was found to be 575 nM against PDE1A, 82 nM at PDE1B and 1480 nM at PDE1C.

On to `CCOc1ncccc1-c1nc2c(C)nn(CC)c2cc1C` [Example 15, 5-(2-ethoxy-3-pyridyl)-1-ethyl-3,6-dimethyl-pyrazolo[4,3-b]pyridine], for which the IC50 against PDE1A came out at 1010 nM; at PDE1B, 156 nM; on PDE1C it was 1890 nM.

Consider `CCCOc1ncccc1-c1nc2c(C)nn(C(C)C)c2cc1C` [Example 64, 1-isopropyl-3,6-dimethyl-5-(2-propoxy-3-pyridyl)pyrazolo[4,3-b]pyridine], for which the results for the 50% inhibitory concentration (IC50) against PDE1A, at PDE1B and at PDE1C were 118 nM, 25 nM and 220 nM, respectively.

Broadly, the inhibition is the relative decrease from the control value, in per cent. In the case of `COc1cccnc1-c1cc(N[C@@H]2CCOC2)c2c(cnn2C(C)C)n1` [Example 40, 1-isopropyl-5-(3-methoxy-2-pyridyl)-N-[(3R)-tetrahydrofuran-3-yl]pyrazolo[4,3-b]pyridin-7-amine], the inhibition at 10 µM against PDE1A stood at 81%; on PDE1C, 26%. In addition, the IC50 at PDE1B was 2140 nM.

On to `CCOc1ncccc1-c1ccn2c(CC(F)(F)F)nc(C)c2n1` [Example 78, 2-(2-ethoxy-3-pyridyl)-8-methyl-6-(2,2,2-trifluoroethyl)imidazo[1,5-a]pyrimidine], for which the IC50 at PDE1A came out at 321 nM; on PDE1B it was 207 nM; on PDE1C, 717 nM.

With `COc1ncc(C#N)cc1-c1cc(N[C@@H]2CCOC2)c2c(cnn2C(C)C)n1` [Example 54, 5-[1-isopropyl-7-[[(3R)-tetrahydrofuran-3-yl]amino]pyrazolo[4,3-b]pyridin-5-yl]-6-methoxy-pyridine-3-carbonitrile], the inhibition at 10 µM against PDE1A is 59%. Further, the IC50 at PDE1B was 1530 nM; at PDE1C it was 2400 nM.

On PDE1A, `CCOc1ncccc1-c1cc(NC2CCOCC2)c2c(cnn2C(C)C)n1` [Example 10, 5-(2-ethoxy-3-pyridyl)-1-isopropyl-N-tetrahydropyran-4-yl-pyrazolo[4,3-b]pyridin-7-amine] gave an inhibition at 10 µM of 71%. The IC50 stood at 126 nM at PDE1B and 2660 nM at PDE1C.

In the case of `CCOc1ncccc1-c1ccc2c(cnn2C(C)C)n1` [Example 70, 5-(2-ethoxy-3-pyridyl)-1-isopropyl-pyrazolo[4,3-b]pyridine], the IC50 is 836 nM against PDE1A, 99 nM on PDE1B and 2170 nM at PDE1C.

With `COCc1cccc(-c2cc(N[C@@H]3CCOC3)c3c(cnn3C(C)C)n2)c1` [Example 45, 1-isopropyl-5-[3-(methoxymethyl)phenyl]-N-[(3R)-tetrahydrofuran-3-yl]pyrazolo[4,3-b]pyridin-7-amine], the IC50 on PDE1A came to 2480 nM; on PDE1B it was 341 nM. The inhibition at 10 µM at PDE1C worked out at 72%.

With `CC(C)n1ncc2nc(-c3ccccc3)cc(N[C@@H]3CCOC3)c21` [Example 27, 1-isopropyl-5-phenyl-N-[(3R)-tetrahydrofuran-3-yl]pyrazolo[4,3-b]pyridin-7-amine], the IC50 on PDE1A amounted to 2000 nM; at PDE1B, 690 nM; on PDE1C it was 3550 nM.

For the compound `CCOc1ncccc1-c1cc(N2CC[C@@H](OC)C2)c2c(cnn2C)n1` [Example 85, 5-(2-ethoxy-3-pyridyl)-7-[(3R)-3-methoxypyrrolidin-1-yl]-1-methyl-pyrazolo[4,3-b]pyridine], the inhibition at 1 µM on PDE1A (@ 1 μM compound) stood at 23%; at PDE1C (@ 1 μM compound, read-out: PDE1 C, % inhibition @ 1 μM), 56%. Besides, the IC50 on PDE1B was found to be 536 nM.

With `CCOc1ccccc1-c1cc(N[C@@H]2CCOC2)c2c(cnn2C(C)C)n1` [Example 53, 5-(2-ethoxyphenyl)-1-isopropyl-N-[(3R)-tetrahydrofuran-3-yl]pyrazolo[4,3-b]pyridin-7-amine], the inhibition at 10 µM at PDE1A is 73%; at PDE1C, 61%. Besides, the IC50 at PDE1B is 299 nM.

For `CC(C)n1ncc2nc(-c3cncnc3)cc(N[C@@H]3CCOC3)c21` [Example 26, 1-isopropyl-5-pyrimidin-5-yl-N-[(3R)-tetrahydrofuran-3-yl]pyrazolo[4,3-b]pyridin-7-amine], the inhibition at 10 µM against PDE1A was found to be 54%; on PDE1C, 70%. For the same compound, on PDE1B, the IC50 came out at 3650 nM.

On to `CCOc1ncccc1-c1cc(N[C@H]2CCCOC2)c2c(cnn2C(C)C)n1` [Example 9, 5-(2-ethoxy-3-pyridyl)-1-isopropyl-N-[(3S)-tetrahydropyran-3-yl]pyrazolo[4,3-b]pyridin-7-amine], for which the IC50 was determined as 687 nM at PDE1A, 295 nM on PDE1B and 2700 nM at PDE1C.

Regarding `COc1cnccc1-c1cc(N[C@@H]2CCOC2)c2c(cnn2C(C)C)n1` [Example 30, 1-isopropyl-5-(3-methoxy-4-pyridyl)-N-[(3R)-tetrahydrofuran-3-yl]pyrazolo[4,3-b]pyridin-7-amine], the IC50 against PDE1A is 1550 nM; on PDE1B, 236 nM; at PDE1C, 2560 nM.

For `CCOc1ncccc1-c1ccc2c(n1)c(C)nn2C(C)C` [Example 59, 5-(2-ethoxy-3-pyridyl)-1-isopropyl-3-methyl-pyrazolo[4,3-b]pyridine], the IC50 at PDE1A came out at 52 nM; on PDE1B, 26 nM; at PDE1C, 180 nM.

For `COc1cc(-c2cc(N[C@@H]3CCOC3)c3c(cnn3C(C)C)n2)c(OC)cn1` [Example 38, 5-(2,5-dimethoxy-4-pyridyl)-1-isopropyl-N-[(3R)-tetrahydrofuran-3-yl]pyrazolo[4,3-b]pyridin-7-amine], the IC50 turned out to be 1160 nM against PDE1A, 308 nM on PDE1B and 566 nM at PDE1C.

`CCOc1ncccc1-c1ccn2c(C(C)(C)C)nc(C)c2n1` [Example 82, 6-tert-butyl-2-(2-ethoxy-3-pyridyl)-8-methyl-imidazo[1,5-a]pyrimidine]: the inhibition at 10 µM against PDE1A came to 29%; at PDE1B (@ 10 μM compound, read-out: PDE1 B, % inhibition @ 10 μM), 54%; on PDE1C, 28%.

Take `CC(C)n1ncc2nc(-c3cnn4ccccc34)cc(N[C@@H]3CCOC3)c21` [Example 35, 1-isopropyl-5-pyrazolo[1,5-a]pyridin-3-yl-N-[(3R)-tetrahydrofuran-3-yl]pyrazolo[4,3-b]pyridin-7-amine]: the IC50 worked out at 1620 nM at PDE1A, 604 nM at PDE1B and 2140 nM on PDE1C.

On to `CCOc1ncccc1-c1cc(N)c2c(n1)c(C)nn2C(C)C` [Example 69, 5-(2-ethoxy-3-pyridyl)-1-isopropyl-3-methyl-pyrazolo[4,3-b]pyridin-7-amine], for which the IC50 is 62 nM against PDE1A, 13 nM on PDE1B and 129 nM on PDE1C.

On to `COc1cnc(C)c(-c2cc(N[C@@H]3CCOC3)c3c(cnn3C(C)C)n2)c1` [Example 51, 1-isopropyl-5-(5-methoxy-2-methyl-3-pyridyl)-N-[(3R)-tetrahydrofuran-3-yl]pyrazolo[4,3-b]pyridin-7-amine], for which 10 µM produced 20% inhibition at PDE1A. The IC50 at PDE1B came out at 3250 nM; at PDE1C it was 3850 nM.

As to `CC(C)n1ncc2nc(-c3ccccc3C#N)cc(N[C@@H]3CCOC3)c21` [Example 41, 2-[1-isopropyl-7-[[(3R)-tetrahydrofuran-3-yl]amino]pyrazolo[4,3-b]pyridin-5-yl]benzonitrile], the IC50 on PDE1A stood at 951 nM; on PDE1B, 248 nM; at PDE1C it was 1710 nM.

As for `CCOc1ncccc1-c1cc(N[C@@H]2CCCOC2)c2c(cnn2C(C)C)n1` [Example 8, 5-(2-ethoxy-3-pyridyl)-1-isopropyl-N-[(3R)-tetrahydropyran-3-yl]pyrazolo[4,3-b]pyridin-7-amine], the results for the IC50 against PDE1A, on PDE1B and on PDE1C were 2160 nM, 423 nM and 2870 nM, respectively.

For `CCOc1ncccc1-c1ccn2c(C3CC3)nc(C)c2n1` [Example 74, 6-cyclopropyl-2-(2-ethoxy-3-pyridyl)-8-methyl-imidazo[1,5-a]pyrimidine], the values for the IC50 on PDE1A, on PDE1B and on PDE1C were 394 nM, 121 nM and 1180 nM, respectively.
